Laboratory results published in PubChem BioAssay (NCI).
Several values for one entry are separate records, joined by “and”; a condition that tells them apart may be missing. Equal entries are not always repeated.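 Five compound concentrations were applied to cells in 96-well plates for 48 hours; endpoints were derived by simple linear interpolation of the resulting dose-response curve. GI50 is the concentration that inhibits growth by half. At the TGI there is no net growth.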

Assays:
Assay in all cases: NCI-60 cell line screen, 48 h
SF-539 CNS = system: SF-539 CNS
NCI-H23 lung = system: NCI-H23 lung
NCI-H522 lung = system: NCI-H522 lung
SK-OV-3 ovarian = system: SK-OV-3 ovarian
UACC-62 melanoma = system: UACC-62 melanoma
NCI/ADR-RES ovarian = system: NCI/ADR-RES ovarian
SK-MEL-2 melanoma = system: SK-MEL-2 melanoma
HL-60(TB) leukemia = system: HL-60(TB) leukemia
ACHN renal = system: ACHN renal
HCC-2998 colon = system: HCC-2998 colon

| Structure (SMILES) | TGI (SF-539 CNS) | TGI (NCI-H23 lung) | TGI (NCI-H522 lung) | TGI (SK-OV-3 ovarian) | TGI (UACC-62 melanoma) | TGI (NCI/ADR-RES ovarian) | TGI (SK-MEL-2 melanoma) | TGI (HL-60(TB) leukemia) | TGI (ACHN renal) | TGI (HCC-2998 colon) | GI50 (NCI-H23 lung) | GI50 (SK-OV-3 ovarian) | GI50 (UACC-62 melanoma) | GI50 (NCI/ADR-RES ovarian) | GI50 (HL-60(TB) leukemia) | GI50 (ACHN renal) | GI50 (HCC-2998 colon) |
| --- | --- | --- | --- | --- | --- | --- | --- | --- | --- | --- | --- | --- | --- | --- | --- | --- | --- |
| Cc1cc(SCC(=O)c2ccc(Br)cc2)cc(C)[o+]1 | 44.5 µM | > 100 µM | 65.2 µM | > 100 µM | > 100 µM | 88.3 µM | 76 µM | 33.8 µM | 96.2 µM | 75.2 µM |  |  |  |  |  |  |  |
| CCCCN(CCCC)CC(=O)c1ccc2cc(Cl)c3ccccc3c2c1 | > 100 µM | > 100 µM | 47.3 µM | > 100 µM | > 100 µM | > 100 µM | 69.9 µM | > 100 µM | 49 µM | 76.8 µM |  |  |  |  |  |  |  |
| Cn1c2ccccc2n2c(=O)c(-c3ccc(O)cc3)nnc12 | > 100 µM | > 100 µM | > 100 µM |  |  | > 100 µM | > 100 µM | > 100 µM | > 100 µM | > 100 µM |  |  |  |  |  |  |  |
| COc1ccc2c(c1)CCC(CN1CCN(CCOC(c3ccc(F)cc3)c3ccc(F)cc3)CC1)=C2 | 42.3 µM | 38.2 µM | 27.8 µM | > 100 µM | 49 µM | 38.4 µM | 33.3 µM | 30.3 µM | > 100 µM | 19 µM |  |  |  |  |  |  |  |
| CCOC(=O)c1c(OCC)[nH]c(=O)c(C(c2ccc(F)cc2)c2c(O)c(C(=O)OCC)c(OCC)[nH]c2=O)c1O | 23.5 µM | 43.6 µM | 42 µM |  | 30.3 µM | > 100 µM | 37 µM | 54.3 µM | 31.7 µM | 39 µM |  |  |  |  |  |  |  |
| N#Cc1ccc(Nc2nc3nc[nH]c3c(=O)[nH]2)cc1 | > 100 µM | > 100 µM | > 100 µM | > 100 µM | > 100 µM | > 100 µM | > 100 µM | > 100 µM | > 100 µM | > 100 µM |  |  |  |  |  |  |  |
| Cc1ccc(Nc2ncnc3sc(SCc4ccccc4)nc23)cc1 | > 100 µM | > 100 µM | > 100 µM | > 100 µM |  | > 100 µM | > 100 µM | > 100 µM | > 100 µM | > 100 µM |  |  |  |  |  |  |  |
| COC(=O)CCCc1ccc2c(c1)CCC2 | > 100 µM | > 100 µM | > 100 µM | > 100 µM | > 100 µM | > 100 µM | > 100 µM | > 100 µM | > 100 µM | > 100 µM |  |  |  |  |  |  |  |
| CC(=O)OCC1OC(n2c(-c3ccccc3)c(N=Nc3ccc(Cl)cc3)c(C)c(C#N)c2=S)C(OC(C)=O)C(OC(C)=O)C1OC(C)=O (stereo unspecified) | 43.7 µM and > 100 µM | 14.9 µM and > 100 µM |  | > 100 µM and 76.5 µM | 15 µM and > 100 µM | > 100 µM | 39.6 µM and > 100 µM | > 100 µM | > 100 µM | 63 µM and > 100 µM | 2.75 µM and 22.3 µM | 8.42 µM and 27.3 µM | 3.2 µM and 14.4 µM | 6.76 µM and 33.2 µM | 23 µM and 8.03 µM | 6.95 µM and 34.6 µM | 18 µM and > 100 µM |
| O=C(/C=C1\N=C(c2ccccc2)N(c2ccc3c(c2)Sc2cc(N4C(=O)/C(=C/C(=O)/C=C/c5ccccc5)N=C4c4ccccc4)ccc2N3)C1=O)/C=C/c1ccccc1 |  | > 100 µM | 46.8 µM | 33.8 µM | 33.3 µM | > 100 µM | 38.2 µM | > 100 µM | > 100 µM | > 100 µM |  |  |  |  |  |  |  |
| COc1cc(/C=C\c2ccc(SC)cc2)cc(OC)c1OC | 0.0364 µM | 0.408 µM | 0.0369 µM | 1.75 µM | > 100 µM | > 100 µM | 0.841 µM | 0.463 µM | > 100 µM | 2.17 µM |  |  |  |  |  |  |  |
| C=C(C)C1CC2=C(C(=O)OC)C=C(O2)C(C(=C)C)[C@@H]2OC(=O)/C(=C\C1O)[C@H]2N(C)C (stereo partly specified) | 22.9 µM | 28.8 µM | 10.3 µM | 64.1 µM | 28.3 µM | 26 µM | 26.7 µM | > 24.2 µM | 24 µM | 29 µM |  |  |  |  |  |  |  |
| C(=N\NC1=NCCCN1)/c1ccc(-c2cn3cc(/C=N/NC4=NCCCN4)ccc3n2)cc1 | > 100 µM | > 100 µM | > 100 µM | > 100 µM | > 100 µM | > 100 µM | > 100 µM | > 58.1 µM | > 100 µM | > 100 µM |  |  |  |  |  |  |  |
| CC(=O)C1=CC=C/C1=N\Nc1ccccc1 | 8.64 µM | 26.6 µM | 19.1 µM | 30.7 µM | 28.7 µM | > 100 µM | 27.7 µM | 5.5 µM | 23.4 µM | 20.5 µM |  |  |  |  |  |  |  |
| CC(C)C[C@H](NC(=O)[C@@H](Cc1cccc2ccccc12)NC(=O)N1CCOCC1)B(O)O | 4.61 µM | 8.94 µM | 4.4 µM | 40.6 µM | 16 µM | > 100 µM | 13.1 µM | > 24.6 µM | > 100 µM | 4.47 µM |  |  |  |  |  |  |  |
| COc1ccccc1NC(=S)N/N=C(/c1ccccc1)c1ccccn1 | 12 µM | 24.3 µM | 17.3 µM | 13.8 µM | 9.23 µM | 11.3 µM | 21.7 µM | 2.18 µM | 11.8 µM | 29.1 µM |  |  |  |  |  |  |  |
